The values that follow come from patent publication US9290496B2, “Purine derivatives” (PFIZER INC., priority 2013, dated 2016).

Holding throughout (assay type): cell-based
In assay [1] the target is T1, EGFR L858R+T790M, endogenous (NCI-H1975) (Homo sapiens, UniProt P00533, L858R/T790M).
T1 construct: NCI-H1975 (EGFR L858R+T790M, endogenous); host or cells: NCI-H1975
In words: pEGFR Y1068 ELISA assay, NCI-H1975 cells. The following applies: inhibition of phosphorylation of EGFR at Tyr1068; NCI-H1975 NSCLC cells; 2 hr compound incubation. (In an ELISA, binding on a coated surface is turned into a signal by an enzyme label.)
Description: Phosphorylation of EGFR at Y1068 was measured by PathScan® Phospho-EGF Receptor (Try1068) Sandwich ELISA kit (#7240, Cell Signaling Technology®, Danvers, Mass.). The PathScan® Phospho-EGF Receptor (Tyr1068) Sandwich ELISA Kit is a solid phase sandwich enzyme-linked immunosorbent assay (ELISA) that detects endogenous levels of phospho-EGF Receptor (Tyr1068) protein. […] All cells were cultured according to ATCC recommendations. A549, NCI-H1975, PC9, and NCI-H3255 cells were grown in RPMI media (Invitrogen, Carlsbad, Calif.) supplemented with 10% FBS (Sigma, St Louis, Mo.), and with 1% Penn/Strep (Invitrogen). PC9-DRH cells were grown in RPMI with 10% FBS and 1 μM dacomitinib.
Cells were plated at 40,000/well in complete culture media (50 μL/well) on the bottom of clear tissue culture treated microtiter plates (#3595, Corning Inc, Corning, N.Y.) and allowed to adhere overnight at 37° C., 5% CO2. The following day, compound dilution plates were prepared in 96 well clear V-bottom 0.5 mL polypropylene block plates (#3956, Corning, Inc). Each compound was prepared as a DMSO stock solution (10 mM). Compounds were tested in duplicate on each plate, with an 11-point serial dilution curve (1:3 dilution). Compound treatment (50 μL) was added from the compound dilution plate to the cell plate. […] Plates were then incubated for 2 hr at 37° C., 5% CO2. For A549 (EGFR wildtype) assay, cells were plated in full-serum (10%) media for 24 hr prior to compound treatment; cells were treated in full serum media as described and then stimulated for 10 min with EGF (40 ng/mL/starvation media, Invitrogen). Immediately prior to the end of the incubation, ice-cold lysis buffer was prepared (1× Cell Lysis Buffer (#9803, Cell Signaling Technology), 1 mM sodium orthovanadate (Na3VO4, #96508, Sigma), 1 mM phenylmethanesulfonyl fluoride (PMSF, 52332, CalBiochem/EMD Chemicals), complete Mini EDTA-free Protease Inhibitor Cocktail Tablet (1 tablet/10 mL, #11836170001, Roche, Indianapolis, Ind.), and PhosSTOP Phosphatase Inhibitor Cocktail Tablet (1 tablet/10 mL, #04906837001, Roche) in pure water. At the end of 2 hr, media was flicked off and cells were washed once with ice-cold 1 mM Na3VO4 in PBS (100 μL/well, Invitrogen). The wash was then flicked off and ice-cold lysis buffer was added to the cells (50 μL/well). The plate was shaken for 20-30 min at 4° C. to completely lyse the cells. Sample diluent (50 μL/well) was added to the ELISA plate, and the lysate (50 μL) was diluted into the sample diluent in each well of the ELISA plate. Plates were sealed and incubated overnight at 4° C. with shaking. The next day, wells were washed four times with 1× Wash Buffer; plates were taped on lint-free paper after the final wash prior to adding Add Detection Antibody (green, 100 μL/well) to each well and incubating for 1 hr at 37° C. After incubation, wells were washed as described. HRP-Linked secondary antibody (red, 100 μL/well) was added to each well and incubated for 30 min at 37° C. After incubation, the wells were washed as described. TMB Substrate (100 μL/well) was added to each well and the plate incubated for 10 min at 37° C. or 30 min at rt maximum. Stop Solution (100 μL/well) was added to each well at the end of the incubation and plates were shaken gently for a few seconds. Absorbance was read at 450 nm within 30 min after addition of Stop Solution on a PerkinElmer EnVision Excite Multilabel Reader Method for Absorbance or on a Molecular Devices SpectraMax^384 Reader for absorbance. Data were analyzed using a four-parameter fit in Microsoft Excel.

The target in assay [2] is T2, EGFR del/T790M (PC9-DRH) (Homo sapiens, UniProt P00533, DEL746-750/T790M).
T2 construct: detects endogenous levels of phospho-EGF Receptor (Tyr1068) protein; endogenous in cells; host or cells: PC9-DRH (dacomitinib-resistant derivative of PC9, generated in house)
In words: pEGFR Y1068 ELISA assay, PC9-DRH cells. The following applies: inhibition of phosphorylation of EGFR at Tyr1068; PC9-DRH cells (dacomitinib resistant); 2 hr compound incubation.

The target in assay [3] is T3, EGFR del (PC9) (Homo sapiens, UniProt P00533, DEL746-750).
T3 construct: detects endogenous levels of phospho-EGF Receptor (Tyr1068) protein; host or cells: PC9
Description: pEGFR Y1068 ELISA assay, PC9 cells. The following applies: inhibition of phosphorylation of EGFR at Tyr1068; PC9 NSCLC cells; 2 hr compound incubation.
Description: (§1) The PathScan® Phospho-EGF Receptor (Tyr1068) Sandwich ELISA Kit is a solid phase sandwich enzyme-linked immunosorbent assay (ELISA) that detects endogenous levels of phospho-EGF Receptor (Tyr1068) protein. […] NCI-H3255 cells were licensed from NCI. […] All cells were cultured according to ATCC recommendations. A549, NCI-H1975, PC9, and NCI-H3255 cells were grown in RPMI media (Invitrogen, Carlsbad, Calif.) supplemented with 10% FBS (Sigma, St Louis, Mo.), and with 1% Penn/Strep (Invitrogen).
(§2) Each compound was prepared as a DMSO stock solution (10 mM). Compounds were tested in duplicate on each plate, with an 11-point serial dilution curve (1:3 dilution). Compound treatment (50 μL) was added from the compound dilution plate to the cell plate. […] Plates were then incubated for 2 hr at 37° C., 5% CO2. […] The wash was then flicked off and ice-cold lysis buffer was added to the cells (50 μL/well). The plate was shaken for 20-30 min at 4° C. to completely lyse the cells. Sample diluent (50 μL/well) was added to the ELISA plate, and the lysate (50 μL) was diluted into the sample diluent in each well of the ELISA plate. Plates were sealed and incubated overnight at 4° C. with shaking. The next day, wells were washed four times with 1× Wash Buffer; plates were taped on lint-free paper after the final wash prior to adding Add Detection Antibody (green, 100 μL/well) to each well and incubating for 1 hr at 37° C. After incubation, wells were washed as described. HRP-Linked secondary antibody (red, 100 μL/well) was added to each well and incubated for 30 min at 37° C. After incubation, the wells were washed as described. TMB Substrate (100 μL/well) was added to each well and the plate incubated for 10 min at 37° C. or 30 min at rt maximum. Stop Solution (100 μL/well) was added to each well at the end of the incubation and plates were shaken gently for a few seconds. […] Data were analyzed using a four-parameter fit in Microsoft Excel.

Assay [4] addresses T4, EGFR L858R (NCI-H3255) (Homo sapiens, UniProt P00533, L858R).
T4 construct: detects endogenous levels of phospho-EGF Receptor (Tyr1068) protein; host or cells: NCI-H3255
Description: pEGFR Y1068 ELISA assay, NCI-H3255 cells.
Description: as §1, §2

Assay [5] concerns the target T5, EGFR wildtype, endogenous (A549) (Homo sapiens, UniProt P00533).
T5 construct: A549 (EGFR wildtype, endogenous); host or cells: A549 (stimulated with EGF)
Description: pEGFR Y1068 ELISA assay, A549 cells. The following applies: inhibition of phosphorylation of EGFR at Tyr1068; A549 NSCLC cells; 2 hr compound incubation, then stimulated 10 min with EGF (40 ng/mL).

[6] abbreviates: inhibition of phosphorylation of EGFR at Tyr1068, NCI-H3255 NSCLC cells, 2 hr compound incubation.

Like-named read-outs stand apart in the source and are kept apart here.

T3 sequence (P00533 with tags, fused parts or gaps DEL746-750): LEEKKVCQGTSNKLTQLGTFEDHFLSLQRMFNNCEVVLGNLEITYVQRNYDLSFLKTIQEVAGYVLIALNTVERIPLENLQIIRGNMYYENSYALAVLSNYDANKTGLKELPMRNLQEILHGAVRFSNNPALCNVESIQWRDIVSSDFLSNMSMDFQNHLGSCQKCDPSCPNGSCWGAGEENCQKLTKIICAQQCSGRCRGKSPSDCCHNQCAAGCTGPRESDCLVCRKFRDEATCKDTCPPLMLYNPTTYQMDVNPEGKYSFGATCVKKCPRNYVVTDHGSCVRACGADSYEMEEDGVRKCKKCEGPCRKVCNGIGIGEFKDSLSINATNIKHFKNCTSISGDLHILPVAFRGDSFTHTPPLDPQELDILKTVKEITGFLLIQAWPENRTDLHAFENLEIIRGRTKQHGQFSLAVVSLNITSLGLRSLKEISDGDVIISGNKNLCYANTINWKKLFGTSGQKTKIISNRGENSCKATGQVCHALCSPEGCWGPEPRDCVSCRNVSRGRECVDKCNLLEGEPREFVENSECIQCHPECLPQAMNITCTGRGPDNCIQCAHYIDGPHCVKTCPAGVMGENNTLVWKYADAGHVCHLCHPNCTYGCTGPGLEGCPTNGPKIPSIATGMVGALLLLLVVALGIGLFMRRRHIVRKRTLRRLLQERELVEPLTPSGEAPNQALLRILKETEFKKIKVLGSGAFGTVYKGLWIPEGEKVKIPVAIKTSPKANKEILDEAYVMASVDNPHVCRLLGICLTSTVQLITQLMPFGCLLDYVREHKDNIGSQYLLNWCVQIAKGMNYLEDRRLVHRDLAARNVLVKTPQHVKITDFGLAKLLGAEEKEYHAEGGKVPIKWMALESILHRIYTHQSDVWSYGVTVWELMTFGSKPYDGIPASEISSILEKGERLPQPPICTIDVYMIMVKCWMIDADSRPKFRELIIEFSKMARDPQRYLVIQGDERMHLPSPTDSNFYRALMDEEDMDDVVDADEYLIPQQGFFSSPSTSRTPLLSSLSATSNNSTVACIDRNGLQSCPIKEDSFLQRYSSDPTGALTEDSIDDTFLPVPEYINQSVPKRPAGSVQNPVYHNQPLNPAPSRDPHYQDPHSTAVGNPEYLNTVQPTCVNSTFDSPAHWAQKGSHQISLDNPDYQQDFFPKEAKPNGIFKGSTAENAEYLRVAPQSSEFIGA
T4 sequence (P00533 25-1210 L858R): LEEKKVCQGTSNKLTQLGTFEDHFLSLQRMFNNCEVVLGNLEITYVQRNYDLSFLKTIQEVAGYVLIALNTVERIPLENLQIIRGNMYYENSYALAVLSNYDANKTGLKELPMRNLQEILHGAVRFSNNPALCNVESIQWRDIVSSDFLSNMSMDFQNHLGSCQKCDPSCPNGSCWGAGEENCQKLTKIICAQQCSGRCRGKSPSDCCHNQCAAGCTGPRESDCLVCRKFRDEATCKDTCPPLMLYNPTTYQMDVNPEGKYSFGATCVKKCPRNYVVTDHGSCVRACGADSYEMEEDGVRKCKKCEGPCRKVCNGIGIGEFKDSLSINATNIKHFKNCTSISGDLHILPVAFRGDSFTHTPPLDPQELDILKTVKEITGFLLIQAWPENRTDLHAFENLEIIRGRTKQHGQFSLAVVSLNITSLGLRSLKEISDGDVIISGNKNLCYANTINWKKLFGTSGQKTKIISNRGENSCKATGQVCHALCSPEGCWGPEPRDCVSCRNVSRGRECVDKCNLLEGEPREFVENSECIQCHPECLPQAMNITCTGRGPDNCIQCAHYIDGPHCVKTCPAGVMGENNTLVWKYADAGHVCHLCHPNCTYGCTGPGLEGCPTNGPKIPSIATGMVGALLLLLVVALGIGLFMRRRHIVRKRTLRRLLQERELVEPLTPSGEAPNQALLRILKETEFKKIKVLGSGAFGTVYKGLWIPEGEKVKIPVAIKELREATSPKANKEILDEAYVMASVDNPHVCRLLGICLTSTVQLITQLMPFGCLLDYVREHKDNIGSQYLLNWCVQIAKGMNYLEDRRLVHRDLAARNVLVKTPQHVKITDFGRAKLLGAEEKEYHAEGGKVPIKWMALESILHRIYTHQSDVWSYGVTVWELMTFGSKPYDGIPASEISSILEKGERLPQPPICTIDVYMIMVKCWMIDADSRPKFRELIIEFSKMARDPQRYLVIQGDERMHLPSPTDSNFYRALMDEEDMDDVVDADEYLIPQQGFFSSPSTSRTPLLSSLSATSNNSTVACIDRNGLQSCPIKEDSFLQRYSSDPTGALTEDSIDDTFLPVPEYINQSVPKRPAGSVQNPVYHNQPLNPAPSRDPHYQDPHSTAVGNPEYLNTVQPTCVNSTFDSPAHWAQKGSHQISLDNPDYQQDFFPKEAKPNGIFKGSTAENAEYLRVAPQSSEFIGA
T2 sequence (P00533 with tags, fused parts or gaps DEL746-750/T790M): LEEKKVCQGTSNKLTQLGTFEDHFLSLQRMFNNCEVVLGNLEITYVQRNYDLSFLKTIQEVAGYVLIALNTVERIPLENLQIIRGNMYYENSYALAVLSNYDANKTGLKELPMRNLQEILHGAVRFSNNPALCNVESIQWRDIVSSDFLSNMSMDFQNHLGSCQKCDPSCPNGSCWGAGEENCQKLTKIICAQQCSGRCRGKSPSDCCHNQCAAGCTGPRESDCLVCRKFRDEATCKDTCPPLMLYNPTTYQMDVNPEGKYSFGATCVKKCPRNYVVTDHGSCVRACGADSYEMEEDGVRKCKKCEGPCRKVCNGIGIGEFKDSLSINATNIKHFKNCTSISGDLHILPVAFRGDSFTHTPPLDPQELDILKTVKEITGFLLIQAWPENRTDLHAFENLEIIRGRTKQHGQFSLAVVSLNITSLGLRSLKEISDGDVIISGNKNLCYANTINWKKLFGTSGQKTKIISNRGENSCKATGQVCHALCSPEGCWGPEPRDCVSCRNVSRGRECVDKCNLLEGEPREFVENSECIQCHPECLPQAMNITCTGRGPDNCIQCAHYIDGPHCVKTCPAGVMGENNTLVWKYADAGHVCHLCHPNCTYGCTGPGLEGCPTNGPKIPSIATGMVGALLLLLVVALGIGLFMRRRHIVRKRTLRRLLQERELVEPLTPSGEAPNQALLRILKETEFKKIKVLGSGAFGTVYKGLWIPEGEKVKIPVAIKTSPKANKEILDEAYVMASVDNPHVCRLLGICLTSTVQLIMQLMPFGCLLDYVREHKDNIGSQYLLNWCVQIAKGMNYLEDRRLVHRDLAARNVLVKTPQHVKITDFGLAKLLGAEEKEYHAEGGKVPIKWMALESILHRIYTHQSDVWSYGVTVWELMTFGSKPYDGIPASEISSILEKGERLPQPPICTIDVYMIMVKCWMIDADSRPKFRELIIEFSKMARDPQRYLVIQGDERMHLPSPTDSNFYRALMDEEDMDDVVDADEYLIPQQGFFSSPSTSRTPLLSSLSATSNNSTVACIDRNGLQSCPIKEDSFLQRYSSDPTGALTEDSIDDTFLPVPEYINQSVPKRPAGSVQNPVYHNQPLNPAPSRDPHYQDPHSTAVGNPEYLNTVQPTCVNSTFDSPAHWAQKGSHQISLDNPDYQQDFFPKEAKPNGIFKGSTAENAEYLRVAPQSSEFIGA
T1 sequence (P00533 25-1210 T790M/L858R): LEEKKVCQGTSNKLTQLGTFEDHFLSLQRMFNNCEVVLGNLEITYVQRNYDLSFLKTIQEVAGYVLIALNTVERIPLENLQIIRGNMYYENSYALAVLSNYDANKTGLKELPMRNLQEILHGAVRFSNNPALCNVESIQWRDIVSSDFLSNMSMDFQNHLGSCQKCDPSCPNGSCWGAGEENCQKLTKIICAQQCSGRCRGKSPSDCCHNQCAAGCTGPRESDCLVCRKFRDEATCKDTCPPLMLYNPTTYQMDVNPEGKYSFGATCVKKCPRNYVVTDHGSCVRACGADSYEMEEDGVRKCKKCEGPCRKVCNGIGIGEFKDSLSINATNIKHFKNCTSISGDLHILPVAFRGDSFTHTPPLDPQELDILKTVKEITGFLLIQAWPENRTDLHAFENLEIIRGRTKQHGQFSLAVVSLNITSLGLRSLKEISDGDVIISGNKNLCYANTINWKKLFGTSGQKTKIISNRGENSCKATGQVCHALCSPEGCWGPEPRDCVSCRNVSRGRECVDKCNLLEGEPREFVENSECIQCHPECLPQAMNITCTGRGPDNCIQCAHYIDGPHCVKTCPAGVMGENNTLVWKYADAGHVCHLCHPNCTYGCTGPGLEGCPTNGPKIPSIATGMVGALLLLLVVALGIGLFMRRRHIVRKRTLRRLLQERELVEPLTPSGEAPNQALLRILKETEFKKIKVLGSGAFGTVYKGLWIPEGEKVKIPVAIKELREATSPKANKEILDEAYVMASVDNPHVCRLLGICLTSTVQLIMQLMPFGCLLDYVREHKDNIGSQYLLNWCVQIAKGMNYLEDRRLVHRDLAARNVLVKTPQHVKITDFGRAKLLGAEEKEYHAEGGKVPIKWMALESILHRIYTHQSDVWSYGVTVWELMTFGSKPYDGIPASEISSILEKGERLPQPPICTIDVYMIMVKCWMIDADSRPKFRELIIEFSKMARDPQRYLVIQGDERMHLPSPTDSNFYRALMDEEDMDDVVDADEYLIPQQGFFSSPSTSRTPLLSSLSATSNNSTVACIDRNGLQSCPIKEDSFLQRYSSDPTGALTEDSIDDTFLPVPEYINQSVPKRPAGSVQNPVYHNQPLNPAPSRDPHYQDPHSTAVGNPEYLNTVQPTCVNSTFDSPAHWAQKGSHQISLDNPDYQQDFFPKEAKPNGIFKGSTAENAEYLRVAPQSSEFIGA

Usually IC50 stands for the concentration that inhibits the measured activity by half. For the compound `C=CC(=O)N[C@@H]1CN(c2nc(Nc3cnn(C)c3)c3ncn(C(C)C)c3n2)C[C@@H]1OC` (single isomer, unassigned) [Example 50, N-((cis*)-1-(9-isopropyl-6((1-methyl-1H-pyrazol-4-yl)amino)-9H-purin-2-yl)-4-methoxypyrrolidin-3-yl)acrylamide], the IC50 in assay [1] amounted to 26 nM; in assay [2], 34 nM; in assay [3], 8 nM; in assay [4], 3 nM; in assay [5], 587 nM.

For the compound `C=CC(=O)N[C@@H]1CN(c2nc(Nc3cnn(C)c3)c3ncn(C(C)(C)C)c3n2)CC1F` (stereo in doubt) [Example 49, N-((3R,4S)-1-(9-(tert-butyl)-6-((1-methyl-1H-pyrazol-4-yl)amino)-9H-purin-2-yl)-4-fluoropyrrolidin-3-yl)acrylamide], the half-inhibitory concentration (IC50) is 21 nM in assay [1]; 2 nM in assay [2]; 8 nM in assay [3]; 3 nM in assay [4]; 787 nM in assay [5].

Regarding `C=CC(=O)N[C@H]1CCN(c2nc(Nc3ccc(N4CCN(C)CC4)cc3)c3ncn(C(C)C)c3n2)C1` [Example 1, (S)-N-(1-(9-isopropyl-6-((4-(4-methylpiperazin-1-yl)phenyl)amino)-9H-purin-2-yl)pyrrolidin-3-yl)acrylamide], the 50% inhibitory concentration (IC50) came out at 19 nM in assay [1]; 18 nM in assay [2]; 22 nM in assay [3]; 19 nM in assay [4]; 277 nM in assay [5].

For `C=CC(=O)N[C@H]1CCN(c2nc(Nc3cnn(C)c3)c3ncn(C(C)C)c3n2)C1` [Example 4, (S)-N-(1-(9-isopropyl-6-((1-methyl-1H-pyrazol-4-yl)amino)-9H-purin-2-yl)pyrrolidin-3-yl)acrylamide], the concentration for half-maximal inhibition (IC50) in assay [1] stood at 52 nM; in assay [3], 52 nM; in assay [4], 59 nM; in assay [5], 652 nM.

As to `C=CC(=O)NC1(C)CN(c2nc(Nc3cnn(C)c3)c3ncn(C(C)C)c3n2)C1` [Example 13, N-(1-(9-isopropyl-6((1-methyl-1H-pyrazol-4-yl)amino)-9H-purin-2-yl)-3-methylazetidin-3-yl)acrylamide], the IC50 in assay [1] came out at 40 nM; in assay [2], 25 nM; in assay [3], 40 nM; in assay [4], 80 nM; in assay [5], 2440 nM.

Regarding `C=CC(=O)N1C[C@@H]2CN(c3nc(Nc4ccc(N5CCN(C)CC5)cc4)c4ncn(C(C)C)c4n3)C[C@@H]2C1` [Example 21, 1-((cis)-5-(9-isopropyl-6-((4-(4-methylpiperazin-1-yl)phenyl)amino)-9H-purin-2-yl)hexahydropyrrolo[3,4-c]pyrrol-2(1H)-yl)prop-2-en-1-one], the IC50 turned out to be 14 nM in assay [1]; 18 nM in assay [2]; 8 nM in assay [3]; 8 nM in assay [4] (setting [6]); 181 nM in assay [5].

Take `C=CC(=O)N(C)[C@H]1C[C@H](Oc2nc(Nc3ccc(N4CCN(C)CC4)cc3)c3ncn(C(C)C)c3n2)C1` [Example 29, N-((trans)-3-((9-isopropyl-6-((4-(4-methylpiperazin-1-yl)phenyl)amino)-9H-purin-2-yl)oxy)cyclobutyl)-N-methylacrylamide]: the IC50 turned out to be 35 nM in assay [1]; 61 nM in assay [2]; 40 nM in assay [3]; 35 nM in assay [4]; 698 nM in assay [5].

For the compound `C=CC(=O)N[C@H]1CCN(c2nc(Nc3cnn(C4CCN(C)CC4)c3)c3ncn(C(C)C)c3n2)C1` [Example 41, (S)-N-(1-(9-isopropyl-6-((1-(1-methylpiperidin-4-yl)-1H-pyrazol-4-yl)amino)-9H -purin-2-yl)pyrrolidin-3-yl)acrylamide], the IC50 in assay [1] was 64 nM; in assay [2], 3 nM; in assay [3] it was 38 nM; in assay [4], 9 nM; in assay [5], 3040 nM.

On to `C=CC(=O)N[C@H]1CCN(c2nc(Nc3ccc(N4CCN(C)CC4)cc3)c3ncn(CCO)c3n2)C1` [Example 46, (S)-N-(1-(9-(2-hydroxyethyl)-6-((4-(4-methylpiperazin-1-yl)phenyl)amino)-9H -purin-2-yl)pyrrolidin-3-yl)acrylamide], for which the IC50 in assay [1] is 387 nM; in assay [3] it was 31 nM; in assay [4] (setting [6]), 7 nM; in assay [5] it was 4190 nM.

Regarding `C=CC(=O)N[C@@H]1CN(c2nc(Nc3cn(C4CCN(C)C4)nc3C)c3ncn(C(C)C)c3n2)C[C@H]1F` (stereo partly drawn) [Example 55, N-((3R,4R)-4-fluoro-1-(9-isopropyl-6-((3-methyl-1-(1-methylpyrrolidin-3-yl)-1H -pyrazol-4-yl)amino)-9H-purin-2-yl)pyrrolidin-3-yl)acrylamide], the IC50 in assay [1] was found to be 9 nM; in assay [2], 3 nM; in assay [3] it was 3 nM; in assay [4], 2 nM; in assay [5] it was 273 nM.

Take `C=CC(=O)N[C@@H]1CN(c2nc(Nc3ccc(N4CCN(C)CC4)cc3)c3ncn(C(C)C)c3n2)C[C@H]1OC` [Example 62, N-((3R,4R)-1-(9-isopropyl-6-((4-(4-methylpiperazin-1-yl)phenyl)amino)-9H-purin-2-yl)-4-methoxypyrrolidin-3-yl)acrylamide]: the IC50 is 6 nM in assay [1], 3 nM in assay [3] and 1 nM in assay [4].

In the case of `C=CC(=O)N[C@@H]1CN(c2nc(Nc3cnn(C)c3)c3ncn(C(C)C)c3n2)C[C@H]1OC` [Example 63, N-((3R,4R)-1-(9-isopropyl-6-((1-methyl-1H-pyrazol-4-yl)amino)-9H-purin-2-yl)-4-methoxypyrrolidin-3-yl)acrylamide], the IC50 in assay [1] came out at 32 nM; in assay [2], 5 nM; in assay [3], 14 nM; in assay [5], 551 nM.

As to `C=CC(=O)N[C@@H]1CN(c2nc(Nc3cn(C4CCN(C)C4)nc3C)c3ncn(C(C)C)c3n2)C[C@H]1F` (stereo partly drawn) [Example 65, N-((3R,4R)-4-fluoro-1-(9-isopropyl-6-((3-methyl-1-(1-methylpyrrolidin-3-yl)-1H -pyrazol-4-yl)amino)-9H-purin-2-yl)pyrrolidin-3-yl)acrylamide], the IC50 in assay [1] is 14 nM; in assay [2], 9 nM; in assay [3] it was 11 nM; in assay [5], 1260 nM.

Turning to `C=CC(=O)N[C@@H]1CN(c2nc(Nc3cn(C4CCN(C)C4)nc3OC)c3ncn(CC)c3n2)C[C@H]1F` (stereo partly drawn) [Example 75, N-((3R,4R)-1-(9-ethyl-6-((3-methoxy-1-(1-methylpyrrolidin-3-yl)-1H-pyrazol-4-yl)amino)-9H-purin-2-yl)-4-fluoropyrrolidin-3-yl)acrylamide], the IC50 came to 11 nM in assay [1], 2 nM in assay [2], 1 nM in assay [4] and 64 nM in assay [5].

For `C=CC(=O)N[C@@H]1CN(c2nc(Nc3cn(C4CCN(C)C4)nc3OC)c3ncn(C)c3n2)C[C@H]1F` (stereo partly drawn) [Example 79, N-((3R,4R)-4-fluoro-1-(6-((3-methoxy-1-(1-methylpyrrolidin-3-yl)-1H-pyrazol-4-yl)amino)-9-methyl-9H-purin-2-yl)pyrrolidin-3-yl)acrylamide], the IC50 in assay [1] was 6 nM; in assay [2], 1 nM; in assay [3], 3 nM; in assay [4] it was 3 nM; in assay [5] it was 100 nM.

For `C=CC(=O)N[C@@H]1CN(c2nc(Nc3cn(C4CCN(C)C4)nc3C)c3ncn(C)c3n2)C[C@H]1F` (stereo partly drawn) [Example 81, N-((3R,4R)-4-fluoro-1-(9-methyl-6-((3-methyl-1-(1-methylpyrrolidin-3-yl)-1H -pyrazol-4-yl)amino)-9H-purin-2-yl)pyrrolidin-3-yl)acrylamide], the IC50 in assay [1] is 19 nM; in assay [2], 8 nM; in assay [3], 21 nM; in assay [4], 15 nM; in assay [5], 575 nM.

With `C=CC(=O)N[C@@H]1CN(c2nc(Nc3cn(CC(C)O)nc3OC)c3ncn(C(C)C)c3n2)C[C@H]1F` (stereo partly drawn) [Example 84, N-((3R,4R)-4-fluoro-1-(6-((1-(2-hydroxypropyl)-3-methoxy-1H-pyrazol-4-yl)amino)-9-isopropyl-9H-purin-2-yl)pyrrolidin-3-yl)acrylamide], the IC50 in assay [1] is 15 nM; in assay [2] it was 3 nM; in assay [3], 45 nM; in assay [4], 9 nM; in assay [5] it was 1200 nM.

For the compound `C=CC(=O)N[C@@H]1CN(c2nc(Nc3cnn([C@@H]4CCN(C)C4)c3C)c3ncn(C(C)C)c3n2)C[C@H]1F` [Example 85, N-((3R,4R)-4-fluoro-1-(9-isopropyl-6-((5-methyl-1-((R)-1-methylpyrrolidin-3-yl) -1H-pyrazol-4-yl)amino)-9H-purin-2-yl)pyrrolidin-3-yl)acrylamide], the IC50 in assay [1] turned out to be 17 nM; in assay [2], 15 nM; in assay [3], 104 nM; in assay [4] it was 34 nM; in assay [5], 647 nM.
